In PMC9633773, “Discovering cell-active BCL6 inhibitors: effectively combining biochemical HTS with multiple biophysical techniques, X-ray crystallography and cell-based assays” (Scientific Reports, 2022):
Ends that are not written are not given here.

Legend:
BCL6 BTB domain [1] = target: T1, BCL6 BTB domain (Homo sapiens, UniProt P41182); test: Fluorescence polarisation (FP) competition assay with BCOR-AF633 peptide; type: biochemical; settings: for FP pIC50 Mean / IC50: repurchased hits; for IC50: up to 2 mM, n=1-6, read-out: FP IC50 Geometric Mean
T1 construct: the tag was removed by HRV-3C protease treatment, generating a simpler BCL6 5–129 product; Thioredoxin (N, cleaved yes); 6His (N, cleaved yes); made in house; host or cells: E. coli BL21-AI
Description: A modified BCOR peptide containing a C-terminal cysteine, labelled with Alexa Fluor (AF)633 C5 maleimide ([…]-Cys(AF633)-amide) was obtained from Cambridge Research Biochemical. For high throughput screening, the assay was miniaturized from 10 µL in Perkin Elmer 384-well black Proxi Plus plates to 4 µL in Labcyte 1536-well black low dead volume LP-0410 plates. Each complete reaction (a modified version from[9],[17]) contained 20 mM Hepes/NaOH pH 8.0, 150 mM NaCl, 0.5 mM tris(2-carboxyethyl)phosphine (TCEP), 0.05% (v/v) Tween 20, 10 nM BCOR-AF633 peptide, 3 µM BCL6 BTB and 1–2% (v/v) DMSO. At this protein concentration, we recorded a FP signal of 80 to 90 mP, corresponding to about 55% BCOR-AF633 bound to the BCL6 BTB domain. Compounds and control BCOR peptide were dispensed using an Echo550 acoustic dispenser (Beckman Coulter). Protein and peptide reagents were added using a Multidrop combi (Thermo Scientific) or a Tempest v2 (Formulatrix). After 2 h incubation at room temperature, plates were read on an Envision plate reader (Perkin Elmer) with excitation and emission wavelengths of 620 nm and 688 nm, respectively, or Pherastar FSX (BMG Labtech) with FP filters module 590-50/675-50/675-50. […] As a low signal control, we used either the maximal inhibition by BCOR in the HTS campaign, or the signal obtained from the probe in the absence of BCL6 for IC50 determination. IC50 values were calculated using a sigmoidal dose–response (variable slope) four- parameter equation. Beside the FP measurement, the total fluorescence intensity (TFI) was recorded to allow identification of interfering compounds (TFI > 110% control)[26].

BCL6 BTB [2] = target: T2, BCL6 BTB (Homo sapiens, UniProt P41182); test: Thermal shift assay (TSA); type: binding; settings: measured at 200 and 400 µM compound; binder if ≥ 1 °C
T2 construct: the tag was removed by HRV-3C protease treatment, generating a simpler BCL6 5–129 product; Thioredoxin (N, cleaved yes); 6His (N, cleaved yes); made in house; host or cells: E. coli BL21-AI
Description: Thermal shift assays were performed in 4titude FrameStar (Part No. 4ti-0385) 384 well skirted PCR plates: each well contained 10 µL of sodium acetate pH 6 buffer, 100 mM NaCl, 0.5 mM TCEP, 10 µM BCL6 BTB and 20 × Sypro Orange dye (Life Technologies), with or without inhibitor compound (100–400 µM) at 4% (v/v) final DMSO concentration. Plates were heated on a Biorad CFX384 real time thermocycler with a temperature gradient from 10 to 95 °C with a 0.5 °C increment, 0.15 s/cycle. Data were processed using Vortex (Dotmatics): a shift of the BCL6 BTB melting temperature (ΔTm) of + 1 °C or more was classed as indicative of BCL6 compound binding.

BCL6 BTB domain [3] = target: T1, BCL6 BTB domain; test: Surface plasmon resonance (SPR); type: binding; settings: immobilised BCL6 BTB, pH 6.0, 1:1 equilibrium model;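 also: Fail means no measurable KD from unsaturated curves poor sensorgrams or non-1:1 stoichiometry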
Description: All surface plasmon resonance (SPR) experiments were carried out on a Biacore T200 (Cytiva) and amine coupling chemistry was used to immobilise the protein on a research grade CM5 sensor chip. The running buffer consisted of 100 mM sodium acetate, 100 mM sodium chloride, and 1 mM TCEP at pH 6.0. The chip’s surface was activated for 10 min using a 1:1 mixture of 100 mM N-hydroxysuccinimide and 400 mM 1-ethyl-3-(3-dimethylaminopropyl)-carbodiimide. BCL6 BTB protein was injected for 20 min at a concentration of 100 µg/mL in a 10 mM sodium acetate buffer (pH 5.5). Finally, the surface was blocked via an injection of 1 M ethanolamine pH 8.5 for 7 min. The flow rate was maintained at 10 µL/min for all the above procedures and ~ 10,000 response units (RU) of BCL6 was immobilised on the chip. Flow cell one was left unmodified as the reference surface.
Following protein immobilisation, the running buffer was changed to 100 mM sodium acetate, 100 mM sodium chloride, 1 mM TCEP, 0.05% Tween20 (v/v), 5% DMSO at pH 6.0.
All compound handling was performed on an ECHO 550 acoustic liquid dispenser and compounds were added to 384-well polypropylene V-bottomed plates (Greiner), which became the sample plates for the SPR. […] The flow rate was 30 µL/min, the injection time for the samples was 60 s, and the dissociation time was 60 s. The surface was not regenerated between sample injections. KD values were calculated from the Langmuir plot under equilibrium conditions using the 1:1 binding model in the Biacore software version 2 (Cytiva).

BCL6 BTB [4] = target: T2, BCL6 BTB; test: 19F ligand-observed NMR TFA-WVIP-NH2 peptide displacement assay; type: binding; settings: for 19F LO-NMR, % peptide displaced: 200 µM compound, 200 µM TFA-WVIP-NH2, 6 µM BCL6 BTB, mean ± SD, n=2, hit if ≥ 30%
Description: Each 180 µL ^19F-NMR peptide displacement assay contained 20 mM HEPES buffer pH 8, 100 mM NaCl, 0.5 mM TCEP, 10% D2O, 200 µM reporter TFA-WVIP-NH2, with or without 200 µM compound (4% D6-DMSO final) and 6 µM BCL6 BTB. Each 180 µL sample reaction was prepared in a 96-well plate and 170 µL transferred to a 3 mm NMR tube (Bruker, Part No. Z112272) using a Gilson liquid handler GX-281. NMR data were collected on a Bruker […] 500 MHz spectrometer equipped with a 5 mm BBFO probe. Data were acquired and processed using Bruker Topsin 2.1. The recovery of the reporter NMR signal upon addition of compound indicates competitive binding at the same site as the TFA-WVIP-NH2 tetrapeptide on the protein. We quantified the extent of recovery of NMR signal in % of reporter displacement[42]: \% displacement=Ireporter(+protein+compound)-Ireporter(+protein)/Ireporter(-protein)-Ireporter(+protein)X100\%

NMR kinetic solubility = type: physicochemical; settings: 500 µM final compound concentration, 20 mM HEPES buffer pH 8, 2% or 5% DMSO
Description: Solubility measurements by quantitative ^1H-NMR or HPLC method were performed as described previously.

Trx-6His-BCL6 BTB = target: T3, Trx-6His-BCL6 BTB (Homo sapiens, UniProt P41182); test: TR-FRET assay, Trx-6His-BCL6 BTB / BCOR-A633 peptide; type: biochemical; settings: 1 or 10 nM Trx-6His-BCL6 BTB; read-out: TR-FRET IC50
T3 construct: made in house; host or cells: E. coli BL21-AI
Description: Each 15 µL TR-FRET reaction in 384-well black Proxiplate (Perkin Elmer) contained 1 or 10 nM Trx-6His-BCL6 BTB, 300 nM BCOR-A633 and 0.5 or 1 nM anti-6His-Terbium cryptate (Perkin Elmer), in the FP assay buffer (25 mM Hepes pH 8, 100 mM NaCl, 0.05% (v/v) Tween20, 0.5 mM TCEP), supplemented with 0.05% (w/v) bovine serum albumin. Test compounds in DMSO or DMSO alone were added to the wells using and Echo 550 acoustic dispenser to give the appropriate test concentration in 0.7% v/v DMSO final. After a 2 h incubation at room temperature, the plates were read on an Envision plate reader or a Pherastar FSX plate reader with 337 nm laser excitation, a first emission filter at 665 nm and a second emission filter at 615 or 620 nm. Data were normalised and IC50 determined as described above for the FP assay.

Compound	FP pIC50 Mean (BCL6 BTB domain [1])	IC50 (BCL6 BTB domain [1]) [µM]	TSA Tm (thermal shift) (BCL6 BTB [2])	SPR KD (BCL6 BTB domain [3])	19F LO-NMR, % peptide displaced (BCL6 BTB [4]) [%]	Sol. (NMR kinetic solubility) (NMR kinetic solubility) [µM]	Kd (BCL6 BTB domain [3]) [µM]	IC50 (Trx-6His-BCL6 BTB) [µM]	FP % inhibition at top concentration (BCL6 BTB domain [1]; printed beside IC50 >980 µM, 34% inhibition at 1 mM in text) [%]	Displacement of BCL6-bound TFA-WVIP-NH2 peptide (recovery of fluorine signal) (BCL6 BTB [4]; Figure 3A, qualitative)	FP % inhibition (BCL6 BTB domain [1]; at 980 µM, n=4) [%]
Cc1ccccc1C1CC(c2ccccc2)Nc2ncnn21 (centres unmarked) [Compound 1]	3.70	197	0-1 ºC	Fail	61 ± 4	71	–	–	–	–	–
Fc1ccc(C2CC(c3cccc4ccccc34)n3ncnc3N2)cc1 (centres unmarked) [Compound 3]	3.99	102	0.5-2 ºC	Fail	54 ± 1	64	–	–	–	–	–
Fc1ccc(C2CC(c3ccccc3Cl)Nc3ncnn32)cc1 (centres unmarked) [Compound 5]	3.71	194	0 ºC	–	–	< 30	–	–	–	–	–
COC(=O)C1=C(C)Nc2ncnn2C1c1ccc(C(=O)O)cc1 (centres unmarked) [Compound 6]	3.15	703	0.5-1 ºC	–	33.5 ± 1	538	659	–	–	–	–
CCCC1=C(C(=O)OCC)C(c2cccnc2)n2ncnc2N1 (centres unmarked) [Compound 7]	4.02	95.5	0.5-3 ºC	–	82.5 ± 5	476	168	–	–	–	–
CCC1=C(C(=O)OC)C(c2ccccc2F)n2ncnc2N1 (centres unmarked) [Compound 8]	3.66	219	0.5-2 ºC	Fail	–	70	–	–	–	–	–
Cc1cc(NCc2ccc3c(c2)OCO3)n2ncnc2n1 [Compound 9]	3.32	477	–	Fail	49.5 ± 9	96	–	–	–	–	–
N#Cc1c(C(F)(F)F)cc(-c2cccs2)nc1SC(C(=O)O)c1ccccc1 (centres unmarked) [Compound 13]	3.64	230	0-2.5 ºC	–	102 ± 1	313	672	–	–	–	–
O=C(NCc1ccccn1)c1csc(Nc2ccccc2Cl)n1 [Compound 14]	3.74	183	1-2.5 ºC	–	78 ± 23	188	302	–	–	–	–
O=C(NCCCN1CCOCC1)c1csc(Nc2cccc3ccccc23)n1 [Compound 15]	3.83	150	–	–	70 ± 1	83	553	–	–	–	–
Cn1c(=O)n(C)c2cc(Nc3cc(SCc4ccccc4)ncn3)ccc21 [Compound 17]	4.15	70.2	–	–	100 ± 1	39	49	54	–	–	–
Cn1c(=O)n(C)c2cc(Nc3cc(N4CCOCC4)ncn3)ccc21 [Compound 18]	–	> 980	0-0.5 ºC	–	–	55	–	–	34	–	–
COc1cccc(CN(C)c2nc3c(cnn3C(C)(C)C)c(=O)[nH]2)c1 [Compound 20]	3.18	666	0 ºC	–	–	< 30	–	–	–	–	–
CC(C)CCn1c(SCC(=O)Nc2ccccc2F)nc2nccnc2c1=O [Compound 22]	3.45	353	0.5-1 ºC	–	23 ± 11	163	1190	–	–	–	–
EGLVATVKEAGRSIHEIPR [SMRT, reference compound]	–	–	–	–	–	–	–	–	–	able to displace	–
WVIP peptide: hybrid BCOR/SMRT tetrapeptide with an Ac-WVIP-NH2 sequence [reference compound]	–	–	–	–	–	–	–	–	–	–	16
